{"source": "patent US20240279298A1", "about": "(BEIJING TUO JIE BIOPHARMACEUTICAL CO. LTD., priority 2021, published 2024)", "key": {"[1]": {"biological_target": "T1, human glucagon receptor (GCGR) (Homo sapiens, UniProt P47871)", "T1 construct": "expressed in transfected cells", "T1 sequence (P47871 26-477)": "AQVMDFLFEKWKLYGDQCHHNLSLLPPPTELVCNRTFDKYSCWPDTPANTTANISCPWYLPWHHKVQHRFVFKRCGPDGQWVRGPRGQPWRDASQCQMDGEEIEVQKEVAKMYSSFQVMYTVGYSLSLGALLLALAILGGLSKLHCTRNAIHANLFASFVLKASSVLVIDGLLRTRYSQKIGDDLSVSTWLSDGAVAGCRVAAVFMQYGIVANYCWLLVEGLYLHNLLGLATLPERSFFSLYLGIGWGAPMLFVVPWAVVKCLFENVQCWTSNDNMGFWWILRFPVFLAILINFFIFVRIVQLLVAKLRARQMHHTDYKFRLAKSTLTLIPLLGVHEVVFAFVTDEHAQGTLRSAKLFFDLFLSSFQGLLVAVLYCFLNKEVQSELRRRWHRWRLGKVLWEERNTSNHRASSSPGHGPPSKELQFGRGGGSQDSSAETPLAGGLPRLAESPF", "experiment": "Agonist activity assay for GCGR (cAMP HTRF)", "format": "cell-based", "details": "normalized by the activity of the native glucagon"}, "human GLP-1R": {"biological_target": "T2, human GLP-1R (Homo sapiens, UniProt P43220)", "T2 construct": "expressed in transfected cells", "T2 sequence (P43220 24-463)": "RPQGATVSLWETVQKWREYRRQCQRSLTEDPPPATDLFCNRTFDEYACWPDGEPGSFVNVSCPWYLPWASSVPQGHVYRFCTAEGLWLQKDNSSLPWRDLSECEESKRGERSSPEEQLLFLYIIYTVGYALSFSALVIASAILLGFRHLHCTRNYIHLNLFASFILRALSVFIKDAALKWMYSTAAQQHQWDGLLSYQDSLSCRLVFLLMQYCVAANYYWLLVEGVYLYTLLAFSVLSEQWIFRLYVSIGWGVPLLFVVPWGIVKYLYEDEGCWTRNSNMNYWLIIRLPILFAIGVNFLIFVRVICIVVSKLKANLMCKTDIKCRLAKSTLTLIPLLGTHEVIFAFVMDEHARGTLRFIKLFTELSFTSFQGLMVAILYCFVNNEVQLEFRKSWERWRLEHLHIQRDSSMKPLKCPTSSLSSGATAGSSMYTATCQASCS", "experiment": "Agonist activity assay for GLP-1R (cAMP HTRF)", "format": "cell-based", "description": "The activation of GCGR by related compounds will stimulate the formation of cyclic adenosine monophosphate (cAMP) in cells. Thus, the receptor activity can be monitored by cAMP production in proper cells expressing the receptor.\nAgonist activity assay for GCGR: Cryopreserved stable CHO-K1/GCGR/CRE-Luc cells were taken from a liquid nitrogen tank, thawed in a 37° C. water bath, resuspended in DMEM/F12 medium (Sigma Cat #D8437), centrifuged, and seeded into T75 culture flasks. The cells were passaged at least once for subsequent tests. Before testing, the cells were trypsinized, centrifuged, washed once, and resuspended in serum-free DMEM/F12 medium. The cell density was adjusted, and the cells were plated in a 96-well plate at a density of 2,500 cells/5 μL/well. A 1×buffer solution in Cisbio-cAMP-Gs Dynamic kit was prepared, and IBMX was added at a final concentration of 0.5 mM. 5 μL of polypeptide serially diluted by buffer was added into each well, and the plate was shaken gently for mixing and incubated for 30 minutes at 37° C. cAMP-d2 and Anti-cAMP-Eu^3+-Cryptate were 20-fold diluted with cAMP Lysis and detection buffer respectively and mixed well. 5 μL of diluted cAMP-d2 solution and 5 μL of diluted Anti-cAMP-Eu^3+-Cryptate solution were sequentially added into each well. The mixture was mixed well by moderate vibration, and incubated for 1 hour at room temperature away from light.\nAgonist activity assay for GLP-1R: The method differed from the method described above for the agonist activity assay for GCGR in that a stable CHO-GLP-1R cell line was used."}, "[2]": {"experiment": "Chemical stability in phosphate buffer (UPLC purity)", "format": "physicochemical", "method": "The compound purity was calculated by the percentage area of the main peak in the chromatograms relative to the total area of all integrated peaks, normalized by the purity of the sample on day 0 for the purity."}, "[3]": {"system": "normal rats (blood glucose)", "experiment": "Efficacy in normoglycemic rat model", "format": "in vivo, SD rats", "details": "for Blood glucose 15 min / Blood glucose 30 min / Blood glucose 45 min / Blood glucose 60 min: normal rats; for Hyperglycemic efficacy (in words): normoglycemic rats, subcutaneous", "method": "Male SD rats (Sprague-Dawley rats) aged 7-8 weeks were acclimatized for one week. […] The animals were deprived of food 4 hours before and during the experiment, but were provided with free access to water."}, "[4]": {"system": "insulin-induced hypoglycemia rat model", "experiment": "Efficacy in insulin-induced hypoglycemic rat model", "format": "in vivo, SD rats", "details": "for Blood glucose 60 min / Blood glucose 75 min / Blood glucose 90 min / Blood glucose 105 min: insulin 0.65 IU/kg at T0", "method": "Male SD rats (Sprague-Dawley rats) aged 7-8 weeks were acclimatized for one week. […] The animals were deprived of food 4 hours before and during the experiment, but were provided with free access to water. After 4 hours of fasting, the blood glucose level at TO point was determined by tail blood sampling. The modeling groups were immediately administered with 0.65 IU/kg of insulin subcutaneously, and the non-modeling groups were administered with the same volume of normal saline subcutaneously."}, "[5]": {"experiment": "Pharmacokinetics in rats after subcutaneous injection", "format": "in vivo, SD rats", "details": "plasma", "description": "(1) Animals were grouped according to Table 12, and were given free access to water and food before administration.\n• Sampling time: 0 min pre-dose, and 2 min, 4 min, 7 min, 10 min, 20 min, 40 min, 1 h and 2 h post-dose. Blood was collected from rats by jugular catheterization.\n• 1) 0.2 mL of whole blood was collected at each time point into a centrifuge tube containing EDTA-K2; • 2) The blood samples were centrifuged at 4000 g at 4° C. for 5 min, and separated to give the plasma; • 3) The plasma samples were cryopreserved at −80° C.\nThe mixture was vortexed for 5 min and centrifuged at a low temperature for 10 min. 100 μL of the supernatant was taken and added to 100 μL of 0.1% formic acid aqueous solution. The mixture was mixed well, and loaded on the instrument for analysis; • Liquid chromatography and mass spectrometry analysis: LC-30A liquid chromatography system (Shimadzu, Japan) and API 5500 liquid chromatography-triple quadrupole mass spectrometer (Analyst Software data processing system, AB Sciex, USA) were used. The chromatographic column was nanomicro Unisil C18aq (4.6 mm×150 mm, 5 μm) chromatographic column; the column temperature was 40° C.; the mobile phase A was 0.1% formic acid aqueous solution, and the mobile phase B was 0.1% formic acid in acetonitrile; the flow rate was 0.5 mL/min; the injection volume was 20 μL; the gradient is shown in Table 13 below. The mass spectrum was obtained using an electrospray ionization (ESI) source, a positive ion analysis mode and a multi reaction monitoring (MRM) scanning mode.\nThe plasma concentration of the test compounds was measured by HPLC-MS/MS. The plasma concentration-time curve was plotted, and the pharmacokinetic parameters were calculated by PKSolver."}, "[6]": {"details": "4° C., phosphate buffer pH 7.4, 1 mg/mL"}, "[7]": {"details": "25° C., phosphate buffer pH 7.4, 1 mg/mL"}, "[8]": {"details": "0.5 nmol/kg subcutaneous single dose"}, "[9]": {"details": "2 nmol/kg subcutaneous single dose"}, "[10]": {"details": "6 nmol/kg subcutaneous single dose"}, "[11]": {"details": "6 nmol/kg subcutaneous at 45 min"}, "[12]": {"details": "12 nmol/kg subcutaneous at 45 min"}, "[13]": {"details": "20 nmol/kg subcutaneous at 45 min"}, "[14]": {"details": "male SD rats, single SC injection, Dasiglucagon 5 mg/kg, 40 5.06 mg/kg"}, "[15]": {"details": "human, microsomes, 0.25 h, 1 μM"}}, "note": "Where a SMILES comes first, the peptide text is derived from it. [ ]: non-standard residue; d: D form. Aib = CC(C)(N)C(=O)O", "data": [{"smiles": "CC(C)C[C@H](NC(=O)[C@H](Cc1ccc(O)cc1)NC(=O)[C@H](CCCCN)NC(=O)[C@H](CO)NC(=O)[C@H](Cc1ccc(O)cc1)NC(=O)[C@H](CC(=O)O)NC(=O)[C@H](CO)NC(=O)[C@@H](NC(=O)[C@H](Cc1ccccc1)NC(=O)[C@@H](NC(=O)CNC(=O)[C@H](CCC(N)=O)NC(=O)[C@H](CO)NC(=O)[C@@H](N)Cc1c[nH]cn1)[C@@H](C)O)[C@@H](C)O)C(=O)N[C@@H](CC(=O)O)C(=O)N[C@@H](CC(C)C)C(=O)NC(C)(C)C(=O)N[C@@H](CCCNC(=N)N)C(=O)N[C@@H](C)C(=O)N[C@@H](CCC(N)=O)C(=O)N[C@@H](CCC(=O)O)C(=O)N[C@@H](Cc1ccccc1)C(=O)N[C@H](C(=O)N[C@@H](CCC(N)=O)C(=O)N[C@@H](Cc1c[nH]c2ccccc12)C(=O)N[C@@H](CC(C)C)C(=O)N[C@@H](CCC(=O)O)C(=O)N[C@@H](CO)C(=O)N[C@H](C(=O)O)[C@@H](C)O)C(C)C", "note": "[Compound 40] (H-HSQGTFTSDYSKYLDL[Aib]RAQEFVQWLEST-OH)", "values": [{"measurement": "Relative activity", "setting": "[1]", "result": 318, "unit": "%"}, {"measurement": "GLP-1R % Activity relative to native GLP-1", "setting": "human GLP-1R", "result": 0.192, "unit": "%"}, {"measurement": "Chemical stability in phosphate buffers (in words)", "setting": "[2]", "result": "better chemical stability in phosphate buffers than that of Dasiglucagon"}, {"measurement": "Purity Day 7", "setting": "[2]; [6]", "result": 99.40, "unit": "%"}, {"measurement": "Purity Day 14", "setting": "[2]; [6]", "result": 99.87, "unit": "%"}, {"measurement": "Purity Day 21", "setting": "[2]; [6]", "result": 100.27, "unit": "%"}, {"measurement": "Purity Day 28", "setting": "[2]; [6]", "result": 100.59, "unit": "%"}, {"measurement": "Purity Day 7", "setting": "[2]; [7]", "result": 99.70, "unit": "%"}, {"measurement": "Purity Day 14", "setting": "[2]; [7]", "result": 99.54, "unit": "%"}, {"measurement": "Purity Day 21", "setting": "[2]; [7]", "result": 97.63, "unit": "%"}, {"measurement": "Purity Day 28", "setting": "[2]; [7]", "result": 97.90, "unit": "%"}, {"measurement": "Purity Day 0", "setting": "[2]; phosphate buffer pH 7.4, 1 mg/mL, day 0 (normalization)", "result": 100.00, "unit": "%"}, {"measurement": "Blood glucose 15 min", "setting": "[3]; [8]", "result": 9.45, "unit": "mmol/L"}, {"measurement": "Blood glucose 30 min", "setting": "[3]; [8]", "result": 8.55, "unit": "mmol/L"}, {"measurement": "Blood glucose 45 min", "setting": "[3]; [8]", "result": 6.93, "unit": "mmol/L"}, {"measurement": "Blood glucose 60 min", "setting": "[3]; [8]", "result": 6.10, "unit": "mmol/L"}, {"measurement": "Blood glucose 15 min", "setting": "[3]; [9]", "result": 8.60, "unit": "mmol/L"}, {"measurement": "Blood glucose 30 min", "setting": "[3]; [9]", "result": 9.52, "unit": "mmol/L"}, {"measurement": "Blood glucose 45 min", "setting": "[3]; [9]", "result": 8.35, "unit": "mmol/L"}, {"measurement": "Blood glucose 60 min", "setting": "[3]; [9]", "result": 6.40, "unit": "mmol/L"}, {"measurement": "Blood glucose 15 min", "setting": "[3]; [10]", "result": 9.63, "unit": "mmol/L"}, {"measurement": "Blood glucose 30 min", "setting": "[3]; [10]", "result": 10.22, "unit": "mmol/L"}, {"measurement": "Blood glucose 45 min", "setting": "[3]; [10]", "result": 8.83, "unit": "mmol/L"}, {"measurement": "Blood glucose 60 min", "setting": "[3]; [10]", "result": 7.10, "unit": "mmol/L"}, {"measurement": "Hyperglycemic efficacy (in words)", "setting": "[3]; listed as Glucagon analog 40", "result": "raised the blood glucose level in rats in a dose-dependent manner"}, {"measurement": "Hyperglycemic efficacy (in words)", "setting": "[3]; listed as glucagon analog 40", "result": "significantly better than that of Dasiglucagon"}, {"measurement": "Blood glucose 60 min", "setting": "[4]; [11]", "result": 6.65, "unit": "mmol/L"}, {"measurement": "Blood glucose 75 min", "setting": "[4]; [11]", "result": 9.05, "unit": "mmol/L"}, {"measurement": "Blood glucose 90 min", "setting": "[4]; [11]", "result": 7.08, "unit": "mmol/L"}, {"measurement": "Blood glucose 105 min", "setting": "[4]; [11]", "result": 6.99, "unit": "mmol/L"}, {"measurement": "Blood glucose 60 min", "setting": "[4]; [12]", "result": 7.40, "unit": "mmol/L"}, {"measurement": "Blood glucose 75 min", "setting": "[4]; [12]", "result": 9.50, "unit": "mmol/L"}, {"measurement": "Blood glucose 90 min", "setting": "[4]; [12]", "result": 9.13, "unit": "mmol/L"}, {"measurement": "Blood glucose 105 min", "setting": "[4]; [12]", "result": 8.63, "unit": "mmol/L"}, {"measurement": "Blood glucose 60 min", "setting": "[4]; [13]", "result": 6.87, "unit": "mmol/L"}, {"measurement": "Blood glucose 75 min", "setting": "[4]; [13]", "result": 9.68, "unit": "mmol/L"}, {"measurement": "Blood glucose 90 min", "setting": "[4]; [13]", "result": 9.28, "unit": "mmol/L"}, {"measurement": "Blood glucose 105 min", "setting": "[4]; [13]", "result": 9.00, "unit": "mmol/L"}, {"measurement": "Effect on raising blood glucose level (in words)", "setting": "[4]; same dose (12 nmol/kg)", "result": "significantly better than that of Dasiglucagon and lasts longer"}, {"measurement": "AUClast/D", "setting": "[5]; [14]", "result": 176, "unit": "h·ng/mL per mg/kg"}, {"measurement": "T1/2", "setting": "[5]; [14]", "result": 24.8, "unit": "min"}, {"measurement": "Tmax", "setting": "[5]; male, SD, rat, sc", "result": 7.02, "unit": "min"}, {"measurement": "half-life", "setting": "[5]; male, SD, rat, sc, male SD rats, single SC injection, Dasiglucagon 5 mg/kg, 40 5.06 mg/kg", "result": 24.6, "unit": "min"}, {"measurement": "bioavailability", "setting": "[5]; male, SD, rat, sc, read-out: Bioavailability (F %)", "result": 88.2, "unit": "%"}, {"measurement": "Percentage residues 0 min", "setting": "human liver microsomes", "result": 100.0, "unit": "%"}, {"measurement": "T½", "setting": "human liver microsomes; human, microsomes, 1 μM", "result": 125.37, "unit": "min"}, {"measurement": "Percentage residues 15 min", "setting": "human liver microsomes; [15]", "result": 100.5, "unit": "%"}, {"measurement": "Percentage residues 30 min", "setting": "human liver microsomes; human, microsomes, 0.5 h, 1 μM", "result": 89.85, "unit": "%"}, {"measurement": "Percentage residues 60 min", "setting": "human liver microsomes; human, microsomes, 1 h, 1 μM", "result": 66.96, "unit": "%"}, {"measurement": "Percentage residues 120 min", "setting": "human liver microsomes; human, microsomes, 2 h, 1 μM", "result": 41.48, "unit": "%"}, {"measurement": "Percentage residues 0 min", "setting": "human kidney microsomes", "result": 100.0, "unit": "%"}, {"measurement": "Percentage residues 60 min", "setting": "human kidney microsomes", "result": 25.16, "unit": "%"}, {"measurement": "T½", "setting": "human kidney microsomes; human, microsomes, 1 μM", "result": 38.19, "unit": "min"}, {"measurement": "Percentage residues 15 min", "setting": "human kidney microsomes; [15]", "result": 63.34, "unit": "%"}, {"measurement": "Percentage residues 30 min", "setting": "human kidney microsomes; human, microsomes, 0.5 h, 1 μM", "result": 45.04, "unit": "%"}, {"measurement": "Percentage residues 120 min", "setting": "human kidney microsomes; human, microsomes, 2 h, 1 μM", "result": 10.61, "unit": "%"}]}]}
